Here are results for two molecules from patent US7070796B1 (Debiopharm S.A., priority 1999, dated 2006).

The conditions of data set [1]: aqueous medium. The text has this: Some of these tests will appear in the examples as comparatives.
A short description of data set [2]: Solvent optimization above 10 mg/ml, visual observation, with temperature variations. The data set is classed as physicochemical. The settings on record: for visual aspect of mixture: aqueous, ad 25 ml. On the procedure: First it has been carried to 60° C. and maintained at this temperature under agitation during one hour. […] It was then submitted to three successive freezing with, in the interval, return to the room temperature. This solution has then staid seven days in a fridge.

Another data set deals with Staphylococcus aureus. Briefly: Efficacy of the antimicrobial conservation (European Pharmacopea 5.1.3). The data set is classed as cell-based. The settings on record: oxaliplatinum in solution, test of artificial contamination recommended by the Pharmacopea. As for the experimental part: Under these conditions, the obtained results have shown a definite reduction of the staphylococcus aureus population with a Δlog of 5,99 after 24 hours.

Take Tween 20: in data set [1], the “effect of the substance, mixed with or solubilised in water, on oxaliplatinum solubility” value is given as “ineffective”.
Consider `N[C@@H]1CCCC[C@H]1N.O=C([O-])C(=O)[O-].[Pt+2]` [oxaliplatinum], for which the “visual aspect of mixture” value in data set [2] (400 mg oxaliplatinum and 12,5 g maltitol) is “residues appear”; in data set [2] (337,5 mg oxaliplatinum and 5 g maltitol) it was “clear”. Moreover, the “visual aspect of solution” value in data set [2] (337,5 mg oxaliplatinum and 5 g maltitol ad 25 ml, 60° C. under agitation during one hour) was “clear and colorless”. Besides, the crystal formation entry in data set [2] (337,5 mg oxaliplatinum and 5 g maltitol ad 25 ml, three successive freezing, then seven days in a fridge, return to room temperature) is recorded as “no crystal has been observed”. In addition, the dissolution in words result in data set [2] (379,7 mg oxaliplatinum in 25 ml glycerol to 85%) was “partly dissolve”. In addition, in the data set on Staphylococcus aureus, the “antimicrobial efficacy in words” value is “antimicrobial efficacy”.
